According to the NIST ThermoML archive (doi:10.1016/j.fluid.2015.12.048):
Numbers after ± are expanded uncertainties.

Columns and labels:
[1] = Crystal
[2] = Molar enthalpy of transition or fusion; details: Crystal; DSC

SMILES | Normal melting temperature ([1]; DTA) | Normal melting temperature ([1]; visual observation) | Molar enthalpy of transition or fusion [2]
CCCCCCCCCCO [decan-1-ol] | 7.0 ± 0.4 °C | 7.0 ± 0.4 °C | –
Cc1ccc(C(C)C)c(O)c1 [3-methyl-6-isopropylphenol] | 49.7 ± 0.4 °C | 50.0 ± 0.4 °C | 4.19 ± 0.103 kcal/mol
OCc1ccccc1 [benzenemethanol] | -15.0 ± 0.4 °C | -15.0 ± 0.4 °C | –
CC(C)[C@@H]1CC[C@@H](C)C[C@H]1O [L-menthol] | 43.6 ± 0.4 °C | 42.8 ± 0.4 °C | 3.07 ± 0.086 kcal/mol
